Data published in article PMC6357742, “Porphyromonas gingivalis in Alzheimer’s disease brains: Evidence for disease causation and treatment with small-molecule inhibitors” (Science Advances, 2019).

Experiments:
[1] = system: differentiated SH-SY5Y cells exposed to RgpB and Kgp; assay: Gingipain-induced aggregation of differentiated SH-SY5Y cells; format: cell-based, human; settings: pretreatment of gingipains; RgpB and Kgp 10 μg/ml, 24 hours
P. gingivalis [2] = assay: Antimicrobial effects of Aβ on P. gingivalis (LIVE/DEAD BacLight); format: cell-based; parameters: dose or concentration left out as unconfirmed; settings: 37°C, anaerobic, 24 hours
P. gingivalis [3] = assay: Kgp-dependent growth of P. gingivalis in defined medium; format: cell-based; settings: 500 nM, over 43 hours
[4] = Oral pharmacokinetic properties and CNS penetration; settings: in vivo
DPP4 = DPP4 (Homo sapiens, UniProt P27487); assay: Cellular protease profiling; format: biochemical
P. gingivalis [5] = format: cell-based
calpain = assay: Cellular protease profiling; format: biochemical
thrombin = thrombin (Homo sapiens, UniProt P00734); assay: Cellular protease profiling; format: biochemical
FVIIa = biological target: T1, FVIIa (Homo sapiens, UniProt P08709); assay: Cellular protease profiling; format: biochemical
T1 sequence (P08709 213-466 limits assumed): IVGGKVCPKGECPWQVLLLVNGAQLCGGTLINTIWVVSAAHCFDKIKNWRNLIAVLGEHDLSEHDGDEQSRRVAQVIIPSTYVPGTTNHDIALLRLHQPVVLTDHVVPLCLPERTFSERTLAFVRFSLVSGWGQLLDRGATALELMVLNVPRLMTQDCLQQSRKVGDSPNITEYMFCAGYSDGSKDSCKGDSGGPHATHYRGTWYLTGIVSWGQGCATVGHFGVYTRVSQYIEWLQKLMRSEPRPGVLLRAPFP
T1 sequence (P08709 61-212 partner limits assumed): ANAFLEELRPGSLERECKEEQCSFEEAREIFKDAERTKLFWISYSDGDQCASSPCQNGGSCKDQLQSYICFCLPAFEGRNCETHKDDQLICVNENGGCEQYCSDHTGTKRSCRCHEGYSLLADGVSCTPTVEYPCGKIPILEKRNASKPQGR

Kgp [6] = biological target: T2, Kgp (Porphyromonas gingivalis, UniProt B2RLK2); format: binding, P. gingivalis; settings: human oral subgingival plaque, preincubation with COR388
proteasome = assay: Cellular protease profiling; format: biochemical
FXa = FXa (Homo sapiens, UniProt P00742); assay: Cellular protease profiling; format: biochemical
caspase family enzymes = assay: Cellular protease profiling; format: biochemical
[7] = system: deubiquitinating peptidases; assay: Cellular protease profiling; format: biochemical
Kgp [8] = biological target: T2, Kgp; format: biochemical, P. gingivalis; settings: recovery of enzyme activity following dilution of enzyme/inhibitor complexes
P. gingivalis W83 = assay: P. gingivalis oral infection in mice, Experiment 3 (brain qPCR, Aβ1–42 and TNFα ELISA); format: in vivo, BALB/c mice; settings: days 36 to 70
tryptase = assay: Cellular protease profiling; format: biochemical
BACE1 = BACE1 (Homo sapiens, UniProt P56817); assay: Cellular protease profiling; format: biochemical
Kgp [9] = biological target: Kgp (Porphyromonas gingivalis, UniProt Q51817); format: binding, P. gingivalis
cathepsin S = cathepsin S (Homo sapiens, UniProt P25774); assay: Cellular protease profiling; format: biochemical
plasmin = plasmin (Homo sapiens, UniProt P00747); assay: Cellular protease profiling; format: biochemical
[10] = system: SH-SY5Y cells infected with P. gingivalis W83; assay: AlamarBlue viability of SH-SY5Y cells challenged with P. gingivalis; format: cell-based, human; settings: W83 strain, MOI of 400, 48 hours
[11] = 10 and 30 mg/kg oral twice daily

NC(=O)CI [iodoacetamide]
gingipain-induced cell aggregation [1]: prevented gingipain-induced aggregation

Aβ1–42: Recombinant Aβ (1-42) Ultra-Pure, Ammonium Hydroxide (rProtein)
viability of P. gingivalis (P. gingivalis [2]): decreased viability

NCCCC[C@H](NC(=O)C1CCCC1)C(=O)COc1c(F)ccc(F)c1F [COR388]
growth of P. gingivalis in defined growth medium (P. gingivalis [3]): inhibited the growth
CNS penetration [4]: significant CNS penetration
oral bioavailability / oral pharmacokinetics ([4]; po): superior oral pharmacokinetic
IC50 (DPP4): > 10 µM
development of resistance on repeat passaging (P. gingivalis [5]): did not develop
IC50 (calpain): > 10 µM
IC50 (thrombin): > 10 µM
IC50 (FVIIa): > 10 µM
Kgp target engagement ex vivo (COR553 probe binding after preincubation) (Kgp [6]): blocked probe binding to the active site
IC50 (proteasome): > 10 µM
IC50 (FXa): > 10 µM
IC50 (caspase family enzymes): > 10 µM
IC50 [7]: > 10 µM
mode of inhibition (Kgp [8]): irreversible binding kinetics
Aβ1–42 level in brain tissue (P. gingivalis W83; 3 mg/kg oral twice daily): did not reduce
P. gingivalis load in brain tissue (P. gingivalis W83; 3 mg/kg oral twice daily): some reduction
TNFα level in brain tissue (P. gingivalis W83; 3 mg/kg oral twice daily): did not reduce
Aβ1–42 level in brain tissue compared to infected vehicle (P. gingivalis W83; [11]): reduced
P. gingivalis load in brain tissue compared to infected vehicle (P. gingivalis W83; [11]): reduced
TNFα level in brain tissue compared to infected vehicle (P. gingivalis W83; [11]): reduced
IC50 (tryptase): > 10 µM
IC50 (BACE1): > 10 µM
Kgp target engagement (COR553 probe binding after preincubation) (Kgp [9]): block of COR553 activity probe binding
IC50 (cathepsin S): > 10 µM
IC50 (plasmin): > 10 µM

CC(C)[C@H](O)C(=O)N[C@@H](C)C(=O)N[C@@H]1C(=O)N(C)CCc2ccccc21 [semagacestat]
protection against P. gingivalis–induced cell death [10]: no protective effect

C[C@H]1c2cccc(O)c2C(=O)C2=C(O)[C@]3(O)C(=O)C(C(N)=O)=C(O)[C@@H](N(C)C)[C@@H]3[C@@H](O)[C@@H]21 [doxycycline]
protection against P. gingivalis–induced cell death [10]: did not protect the cells

COc1c(N2C[C@@H]3CCCN[C@@H]3C2)c(F)cc2c(=O)c(C(=O)O)cn(C3CC3)c12 [moxifloxacin]
development of resistance on repeat passaging (P. gingivalis [5]): complete resistance
increase of minimum inhibitory concentration (MIC) on passaging (P. gingivalis [5]; 12 passages): over 1000 fold
protection against P. gingivalis–induced cell death [10]: did not protect the cells
